Test results taken from ChEMBL document CHEMBL3045592, “Studies of O,O-dimethyl α-(2,4-dichlorophenoxyacetoxy)ethylphosphonate (HW02) as a new herbicide. 1. Synthesis and herbicidal activity of HW02 and analogues as novel inhibitors of pyruvate dehydrogenase complex” (J Agric Food Chem, 2011).
pIC50: −log10 of the molar value.

What was measured:
Abutilon theophrasti [1] = experiment: Pre-emergence herbicidal activity against Abutilon theophrasti (velvetleaf) assessed as growth inhibition at 75 ai g/ha after 20 days by green house test; type: functional
Abutilon theophrasti [2] = experiment: Post-emergence herbicidal activity against Abutilon theophrasti (velvetleaf) assessed as growth inhibition at 450 ai g/ha after 20 days by green house test; type: functional
Digitaria sanguinalis [3] = experiment: Post-emergence herbicidal activity against Digitaria sanguinalis (hairy crabgrass) assessed as growth inhibition at 450 ai g/ha after 20 days by green house test; type: functional
Digitaria sanguinalis [4] = experiment: Pre-emergence herbicidal activity against Digitaria sanguinalis (hairy crabgrass) assessed as growth inhibition at 1500 ai g/ha after 20 days by green house test; type: functional
Chenopodium album [5] = experiment: Pre-emergence herbicidal activity against Chenopodium album assessed as growth inhibition at 150 ai g/ha after 20 days by green house test; type: functional
Brassica juncea = experiment: Post-emergence herbicidal activity against Brassica juncea assessed as growth inhibition at 450 ai g/ha after 20 days by green house test; type: functional
[6] = test system: Brassica rapa subsp. oleifera; experiment: Pre-emergence herbicidal activity against Brassica rapa subsp. oleifera Si Yue Man assessed as growth inhibition at 1500 ai g/ha after 20 days by green house test; type: functional
Setaria viridis [7] = experiment: Post-emergence herbicidal activity against Setaria viridis (green foxtail) assessed as growth inhibition at 75 ai g/ha after 20 days by green house test; type: functional
Abutilon theophrasti [8] = experiment: Pre-emergence herbicidal activity against Abutilon theophrasti (velvetleaf) assessed as growth inhibition at 450 ai g/ha after 20 days by green house test; type: functional
Abutilon theophrasti [9] = experiment: Post-emergence herbicidal activity against Abutilon theophrasti (velvetleaf) assessed as growth inhibition at 75 ai g/ha after 20 days by green house test; type: functional
Digitaria sanguinalis [10] = experiment: Pre-emergence herbicidal activity against Digitaria sanguinalis (hairy crabgrass) assessed as growth inhibition at 150 ai g/ha after 20 days by green house test; type: functional
Medicago sativa [11] = experiment: Post-emergence herbicidal activity against Medicago sativa (alfalfa) assessed as growth inhibition at 1500 ai g/ha after 20 days by green house test; type: functional
Amaranthus spinosus [12] = experiment: Pre-emergence herbicidal activity against Amaranthus spinosus assessed as growth inhibition at 150 ai g/ha after 20 days by green house test; type: functional
Digitaria sanguinalis [13] = experiment: Post-emergence herbicidal activity against Digitaria sanguinalis (hairy crabgrass) assessed as growth inhibition at 150 ai g/ha after 20 days by green house test; type: functional
Pisum sativum = experiment: Post-emergence herbicidal activity against Pisum sativum Zhongwan-2 (pea) assessed as growth inhibition at 450 ai g/ha after 20 days by green house test; details: Lathyrus oleraceus
[14] = Toxicity against Oryza sativa (rice) assessed as growth inhibition at 450 ai g/ha post-emergent application measured after 20 days by green house crop selectivity test; type: organism-based; details: in vivo, read-out: GI
Medicago sativa [15] = experiment: Pre-emergence herbicidal activity against Medicago sativa (alfalfa) assessed as growth inhibition at 1500 ai g/ha after 20 days by green house test; type: functional
Amaranthus spinosus [16] = experiment: Pre-emergence herbicidal activity against Amaranthus spinosus assessed as growth inhibition at 450 ai g/ha after 20 days by green house test; type: functional
Setaria viridis [17] = experiment: Pre-emergence herbicidal activity against Setaria viridis (green foxtail) assessed as growth inhibition at 150 ai g/ha after 20 days by green house test; type: functional
Chenopodium album [18] = experiment: Post-emergence herbicidal activity against Chenopodium album assessed as growth inhibition at 75 ai g/ha after 20 days by green house test; type: functional
Abutilon theophrasti [19] = experiment: Post-emergence herbicidal activity against Abutilon theophrasti (velvetleaf) assessed as growth inhibition at 150 ai g/ha after 20 days by green house test; type: functional
Amaranthus spinosus [20] = experiment: Post-emergence herbicidal activity against Amaranthus spinosus assessed as growth inhibition at 450 ai g/ha after 20 days by green house test; type: functional
Amaranthus retroflexus [21] = experiment: Post-emergence herbicidal activity against Amaranthus retroflexus assessed as growth inhibition at 1500 ai g/ha after 20 days by green house test; type: functional
Setaria viridis [22] = experiment: Post-emergence herbicidal activity against Setaria viridis (green foxtail) assessed as growth inhibition at 150 ai g/ha after 20 days by green house test; type: functional
Digitaria sanguinalis [23] = experiment: Pre-emergence herbicidal activity against Digitaria sanguinalis (hairy crabgrass) assessed as growth inhibition at 450 ai g/ha after 20 days by green house test; type: functional
Chenopodium album [24] = experiment: Post-emergence herbicidal activity against Chenopodium album assessed as growth inhibition at 450 ai g/ha after 20 days by green house test; type: functional
Echinochloa crus-galli [25] = experiment: Post-emergence herbicidal activity against Echinochloa crus-galli (barnyard grass) assessed as growth inhibition at 450 ai g/ha after 20 days by green house test; type: functional
Amaranthus spinosus [26] = experiment: Pre-emergence herbicidal activity against Amaranthus spinosus assessed as growth inhibition at 75 ai g/ha after 20 days by green house test; type: functional
Digitaria sanguinalis [27] = experiment: Post-emergence herbicidal activity against Digitaria sanguinalis (hairy crabgrass) assessed as growth inhibition at 75 ai g/ha after 20 days by green house test; type: functional
Echinochloa crus-galli [28] = experiment: Pre-emergence herbicidal activity against Echinochloa crus-galli (barnyard grass) assessed as growth inhibition at 1500 ai g/ha after 20 days by green house test; type: functional
Amaranthus retroflexus [29] = experiment: Post-emergence herbicidal activity against Amaranthus retroflexus assessed as growth inhibition at 450 ai g/ha after 20 days by green house test; type: functional
Amaranthus spinosus [30] = experiment: Post-emergence herbicidal activity against Amaranthus spinosus assessed as growth inhibition at 75 ai g/ha after 20 days by green house test; type: functional
Setaria viridis [31] = experiment: Pre-emergence herbicidal activity against Setaria viridis (green foxtail) assessed as growth inhibition at 75 ai g/ha after 20 days by green house test; type: functional
Digitaria sanguinalis [32] = experiment: Pre-emergence herbicidal activity against Digitaria sanguinalis (hairy crabgrass) assessed as growth inhibition at 75 ai g/ha after 20 days by green house test; type: functional
[33] = test system: Brassica rapa subsp. oleifera; experiment: Post-emergence herbicidal activity against Brassica rapa subsp. oleifera Si Yue Man assessed as growth inhibition at 1500 ai g/ha after 20 days by green house test; type: functional
Cucumis sativus [34] = experiment: Herbicidal activity against Cucumis sativus Jin 4 (cucumber) assessed as inhibition of root growth after 3 days; type: functional, organism-based; details: Jin 4, 72 h
Echinochloa crus-galli [35] = experiment: Post-emergence herbicidal activity against Echinochloa crus-galli (barnyard grass) assessed as growth inhibition at 1500 ai g/ha after 20 days by green house test; type: functional
Digitaria sanguinalis [36] = experiment: Post-emergence herbicidal activity against Digitaria sanguinalis (hairy crabgrass) assessed as growth inhibition at 1500 ai g/ha after 20 days by green house test; type: functional
Chenopodium album [37] = experiment: Pre-emergence herbicidal activity against Chenopodium album assessed as growth inhibition at 450 ai g/ha after 20 days by green house test; type: functional
Amaranthus spinosus [38] = experiment: Post-emergence herbicidal activity against Amaranthus spinosus assessed as growth inhibition at 150 ai g/ha after 20 days by green house test; type: functional
Cucumis sativus [39] = experiment: Herbicidal activity against Cucumis sativus Jin 4 (cucumber) assessed as inhibition of stem growth after 3 days; type: functional, organism-based; details: Jin 4, 72 h
[40] = biological target: Pyruvate dehydrogenase complex (Vigna radiata var. radiata); experiment: Inhibition of PDHc in Vigna radiata var. radiata VC2778A shoot mitochondria assessed as decrease in rate of NADH formation using sodium pyruvate as substrate preincubated for 25 min before substrate addition measured after 1 min by spectrophotometric assay; type: protein-complex assay
Abutilon theophrasti [41] = experiment: Pre-emergence herbicidal activity against Abutilon theophrasti (velvetleaf) assessed as growth inhibition at 150 ai g/ha after 20 days by green house test; type: functional
Chenopodium album [42] = experiment: Pre-emergence herbicidal activity against Chenopodium album assessed as growth inhibition at 75 ai g/ha after 20 days by green house test; type: functional
Amaranthus retroflexus [43] = experiment: Pre-emergence herbicidal activity against Amaranthus retroflexus assessed as growth inhibition at 1500 ai g/ha after 20 days by green house test; type: functional
Chenopodium album [44] = experiment: Post-emergence herbicidal activity against Chenopodium album assessed as growth inhibition at 150 ai g/ha after 20 days by green house test; type: functional
Setaria viridis [45] = experiment: Post-emergence herbicidal activity against Setaria viridis (green foxtail) assessed as growth inhibition at 450 ai g/ha after 20 days by green house test; type: functional
Setaria viridis [46] = experiment: Pre-emergence herbicidal activity against Setaria viridis (green foxtail) assessed as growth inhibition at 450 ai g/ha after 20 days by green house test; type: functional

COP(=O)(OC)C(OC(=O)COc1ccc(Cl)cc1Cl)c1ccccc1 (stereo not drawn)
growth inhibition (GI) (Abutilon theophrasti [1]): 0% | growth inhibition (GI) (Abutilon theophrasti [2]): 100% | growth inhibition (GI) (Digitaria sanguinalis [3]): 0% | growth inhibition (GI) (Digitaria sanguinalis [4]): 50% | growth inhibition (GI) (Chenopodium album [5]): 0% | growth inhibition (GI) (Brassica juncea): 97.5% | growth inhibition (GI) [6]: 90% | growth inhibition (GI) (Setaria viridis [7]): 0% | growth inhibition (GI) (Abutilon theophrasti [8]): 0% | growth inhibition (GI) (Abutilon theophrasti [9]): 82.5% | growth inhibition (GI) (Digitaria sanguinalis [10]): 0% | growth inhibition (GI) (Medicago sativa [11]): 90% | growth inhibition (GI) (Amaranthus spinosus [12]): 0% | growth inhibition (GI) (Digitaria sanguinalis [13]): 0% | growth inhibition (GI) (Pisum sativum): 96.5% | inhibition at 480 h [14]: 10% | growth inhibition (GI) (Medicago sativa [15]): 90% | growth inhibition (GI) (Amaranthus spinosus [16]): 0% | growth inhibition (GI) (Setaria viridis [17]): 0% | growth inhibition (GI) (Chenopodium album [18]): 82.5% | growth inhibition (GI) (Abutilon theophrasti [19]): 92.5% | growth inhibition (GI) (Amaranthus spinosus [20]): 87.5% | growth inhibition (GI) (Amaranthus retroflexus [21]): 90% | growth inhibition (GI) (Setaria viridis [22]): 0% | growth inhibition (GI) (Digitaria sanguinalis [23]): 45% | growth inhibition (GI) (Chenopodium album [24]): 97.5% | growth inhibition (GI) (Echinochloa crus-galli [25]): 25% | growth inhibition (GI) (Amaranthus spinosus [26]): 0% | growth inhibition (GI) (Digitaria sanguinalis [27]): 0% | growth inhibition (GI) (Echinochloa crus-galli [28]): 50% | growth inhibition (GI) (Amaranthus retroflexus [29]): 87.5% | growth inhibition (GI) (Amaranthus spinosus [30]): 62.5% | growth inhibition (GI) (Setaria viridis [31]): 0% | growth inhibition (GI) (Digitaria sanguinalis [32]): 0% | growth inhibition (GI) [33]: 90% | pIC50 (Cucumis sativus [34]): 7.85 | growth inhibition (GI) (Echinochloa crus-galli [35]): <=50% | growth inhibition (GI) (Digitaria sanguinalis [36]): <=50% | growth inhibition (GI) (Chenopodium album [37]): 0% | growth inhibition (GI) (Amaranthus spinosus [38]): 70% | pIC50 (Cucumis sativus [39]): 5.05 | pIC50 [40]: 4.02 | growth inhibition (GI) (Abutilon theophrasti [41]): 0% | growth inhibition (GI) (Chenopodium album [42]): 0% | growth inhibition (GI) (Amaranthus retroflexus [43]): 90% | growth inhibition (GI) (Chenopodium album [44]): 92.5% | growth inhibition (GI) (Setaria viridis [45]): 0% | growth inhibition (GI) (Setaria viridis [46]): 30%

COP(=O)(OC)C(OC(=O)COc1ccc(Cl)cc1C)c1cccc([N+](=O)[O-])c1 (stereo not drawn)
growth inhibition (GI) (Abutilon theophrasti [1]): 0% | growth inhibition (GI) (Abutilon theophrasti [2]): 100% | growth inhibition (GI) (Digitaria sanguinalis [3]): 10% | growth inhibition (GI) (Digitaria sanguinalis [4]): 90% | growth inhibition (GI) (Chenopodium album [5]): 0% | growth inhibition (GI) [6]: 50% | growth inhibition (GI) (Setaria viridis [7]): 0% | growth inhibition (GI) (Abutilon theophrasti [8]): 0% | growth inhibition (GI) (Abutilon theophrasti [9]): 50% | growth inhibition (GI) (Digitaria sanguinalis [10]): 0% | growth inhibition (GI) (Medicago sativa [11]): 50% | growth inhibition (GI) (Amaranthus spinosus [12]): 0% | growth inhibition (GI) (Digitaria sanguinalis [13]): 0% | growth inhibition (GI) (Medicago sativa [15]): 75% | growth inhibition (GI) (Amaranthus spinosus [16]): 0% | growth inhibition (GI) (Setaria viridis [17]): 0% | growth inhibition (GI) (Chenopodium album [18]): 52.5% | growth inhibition (GI) (Abutilon theophrasti [19]): 90% | growth inhibition (GI) (Amaranthus spinosus [20]): 100% | growth inhibition (GI) (Amaranthus retroflexus [21]): 90% | growth inhibition (GI) (Setaria viridis [22]): 0% | growth inhibition (GI) (Digitaria sanguinalis [23]): 0% | growth inhibition (GI) (Chenopodium album [24]): 100% | growth inhibition (GI) (Amaranthus spinosus [26]): 0% | growth inhibition (GI) (Digitaria sanguinalis [27]): 0% | growth inhibition (GI) (Echinochloa crus-galli [28]): 90% | growth inhibition (GI) (Amaranthus spinosus [30]): 50% | growth inhibition (GI) (Setaria viridis [31]): 0% | growth inhibition (GI) (Digitaria sanguinalis [32]): 0% | growth inhibition (GI) [33]: 75% | growth inhibition (GI) (Echinochloa crus-galli [35]): 75% | growth inhibition (GI) (Digitaria sanguinalis [36]): <=50% | growth inhibition (GI) (Chenopodium album [37]): 0% | growth inhibition (GI) (Amaranthus spinosus [38]): 100% | growth inhibition (GI) (Abutilon theophrasti [41]): 0% | growth inhibition (GI) (Chenopodium album [42]): 0% | growth inhibition (GI) (Amaranthus retroflexus [43]): 75% | growth inhibition (GI) (Chenopodium album [44]): 82.5% | growth inhibition (GI) (Setaria viridis [45]): 0% | growth inhibition (GI) (Setaria viridis [46]): 0%
